Our source for the IC50 values is patent publication US10040781B2, “Tank-binding kinase inhibitor compounds” (Gilead Sciences, Inc., priority 2014, dated 2018).

The structures appear in SMILES notation.

In assay [1] the target is TBK1 (Homo sapiens (Human), UniProt Q9UHD2). Put plainly: TBK1 TR-FRET enzymatic assay.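 Also: phosphorylation of a biotinylated Ser/Thr peptide by purified full-length recombinant TBK1, read by TR-FRET after 240 min at 25 °C, IC50 is the geometric mean of at least four runs.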 For orientation: In TR-FRET formats the signal depends on donor and acceptor labels being close together.
In assay [2] the target is IKKε (Homo sapiens (Human), UniProt Q14164). Put plainly: IKKε TR-FRET enzymatic assay. It is filed as biochemical. The conditions noted are these: read-out: IKKe IC50.
The target of assay [3] is hJAK2 (Homo sapiens (Human), UniProt O60674). Briefly: hJAK2 LANCE TR-FRET enzymatic assay. It is filed as biochemical. The conditions noted are these: read-out: JAK2 IC50.
Chain of hJAK2 (O60674 whole entry): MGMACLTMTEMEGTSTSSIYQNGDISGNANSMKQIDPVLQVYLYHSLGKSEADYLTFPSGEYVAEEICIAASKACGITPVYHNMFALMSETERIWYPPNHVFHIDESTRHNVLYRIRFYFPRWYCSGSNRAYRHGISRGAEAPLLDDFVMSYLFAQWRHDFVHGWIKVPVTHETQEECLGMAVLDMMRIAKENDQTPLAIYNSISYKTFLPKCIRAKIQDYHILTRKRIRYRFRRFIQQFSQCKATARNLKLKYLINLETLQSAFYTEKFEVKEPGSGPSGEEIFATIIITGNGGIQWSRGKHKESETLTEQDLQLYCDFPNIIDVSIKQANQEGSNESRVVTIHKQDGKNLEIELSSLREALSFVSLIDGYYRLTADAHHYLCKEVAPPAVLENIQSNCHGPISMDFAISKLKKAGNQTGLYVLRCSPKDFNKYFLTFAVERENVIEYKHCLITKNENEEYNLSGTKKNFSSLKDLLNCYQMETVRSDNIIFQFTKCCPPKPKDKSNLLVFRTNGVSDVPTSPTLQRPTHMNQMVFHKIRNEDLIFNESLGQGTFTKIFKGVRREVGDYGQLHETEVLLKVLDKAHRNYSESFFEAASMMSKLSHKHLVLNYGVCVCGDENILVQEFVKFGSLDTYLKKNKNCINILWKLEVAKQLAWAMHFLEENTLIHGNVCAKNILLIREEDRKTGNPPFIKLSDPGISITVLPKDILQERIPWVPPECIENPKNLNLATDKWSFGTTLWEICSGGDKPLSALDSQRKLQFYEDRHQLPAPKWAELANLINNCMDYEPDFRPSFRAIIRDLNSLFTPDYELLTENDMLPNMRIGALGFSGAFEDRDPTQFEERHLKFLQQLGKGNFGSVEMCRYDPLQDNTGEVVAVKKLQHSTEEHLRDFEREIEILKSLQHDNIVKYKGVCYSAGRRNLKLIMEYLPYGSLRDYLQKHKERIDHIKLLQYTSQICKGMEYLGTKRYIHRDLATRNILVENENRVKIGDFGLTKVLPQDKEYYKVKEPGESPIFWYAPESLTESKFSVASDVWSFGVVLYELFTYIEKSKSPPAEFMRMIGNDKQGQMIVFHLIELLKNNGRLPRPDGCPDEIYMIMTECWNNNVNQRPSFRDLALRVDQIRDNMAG

Chain of IKKε (Q14164 whole entry): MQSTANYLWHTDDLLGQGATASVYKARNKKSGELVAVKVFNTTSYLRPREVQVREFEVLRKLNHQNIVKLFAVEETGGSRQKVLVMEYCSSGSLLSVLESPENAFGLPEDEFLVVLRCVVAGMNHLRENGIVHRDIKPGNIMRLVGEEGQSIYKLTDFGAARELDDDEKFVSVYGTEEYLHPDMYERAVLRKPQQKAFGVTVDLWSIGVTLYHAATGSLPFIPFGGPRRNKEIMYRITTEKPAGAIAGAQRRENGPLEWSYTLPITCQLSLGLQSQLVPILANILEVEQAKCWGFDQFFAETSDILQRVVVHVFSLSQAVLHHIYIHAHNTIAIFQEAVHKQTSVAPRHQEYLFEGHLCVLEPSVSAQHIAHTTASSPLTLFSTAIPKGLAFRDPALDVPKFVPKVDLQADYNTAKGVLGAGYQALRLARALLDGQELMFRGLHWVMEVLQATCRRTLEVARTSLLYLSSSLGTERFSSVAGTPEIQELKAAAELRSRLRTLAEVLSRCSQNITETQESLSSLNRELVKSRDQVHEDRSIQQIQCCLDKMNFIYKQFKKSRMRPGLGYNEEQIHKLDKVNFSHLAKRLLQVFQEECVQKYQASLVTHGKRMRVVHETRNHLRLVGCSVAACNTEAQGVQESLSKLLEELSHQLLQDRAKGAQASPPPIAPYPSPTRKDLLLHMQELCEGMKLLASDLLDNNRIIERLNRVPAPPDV
Chain of TBK1 (Q9UHD2 whole entry): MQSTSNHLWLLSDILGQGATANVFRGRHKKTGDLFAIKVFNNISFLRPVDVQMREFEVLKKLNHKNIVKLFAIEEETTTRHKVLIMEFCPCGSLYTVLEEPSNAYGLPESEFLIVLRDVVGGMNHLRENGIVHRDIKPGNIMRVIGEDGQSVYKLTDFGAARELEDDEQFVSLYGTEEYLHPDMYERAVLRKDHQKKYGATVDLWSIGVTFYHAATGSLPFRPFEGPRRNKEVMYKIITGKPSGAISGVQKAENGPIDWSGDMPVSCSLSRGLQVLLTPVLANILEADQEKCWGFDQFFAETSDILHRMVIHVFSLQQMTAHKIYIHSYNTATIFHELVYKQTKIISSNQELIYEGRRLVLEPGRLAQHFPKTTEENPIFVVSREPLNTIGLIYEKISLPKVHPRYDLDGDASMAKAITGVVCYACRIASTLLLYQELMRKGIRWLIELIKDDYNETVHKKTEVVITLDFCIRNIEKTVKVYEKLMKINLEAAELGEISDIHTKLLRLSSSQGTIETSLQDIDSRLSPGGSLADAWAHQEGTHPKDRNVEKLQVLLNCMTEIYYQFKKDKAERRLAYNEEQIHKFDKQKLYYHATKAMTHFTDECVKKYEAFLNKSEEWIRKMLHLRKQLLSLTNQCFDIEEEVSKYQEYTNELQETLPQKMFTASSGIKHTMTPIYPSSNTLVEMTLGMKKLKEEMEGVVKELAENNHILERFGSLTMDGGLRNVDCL

For the compound `Cn1cncc1C(=O)N1CC[C@H](Oc2ccc(-c3ncnc(Nc4ccc(N5CCN(C6COC6)CC5)cc4)n3)cc2C#N)[C@H](F)C1` [Example 267, 2-(((3R,4S)-3-fluoro-1-(1-methyl-1H-imidazole-5-carbonyl)piperidin-4-yl)oxy)-5-(4-((4-(4-(oxetan-3-yl)piperazin-1-yl)phenyl)amino)-1,3,5-triazin-2-yl)benzonitrile], the results for the IC50 in assay [1], in assay [2] and in assay [3] were 120 nM, 264 nM and 404 nM, respectively.
Turning to `N#Cc1cc(-c2ncnc(Nc3ccc(N4CCN(C5COC5)CC4)c(F)c3)n2)ccc1OC1CCS(=O)(=O)CC1` [Example 268, 2-((1,1-dioxidotetrahydro-2H-thiopyran-4-yl)oxy)-5-(4-((3-fluoro-4-(4-(oxetan-3-yl)piperazin-1-yl)phenyl)amino)-1,3,5-triazin-2-yl)benzonitrile], the IC50 – broadly, the concentration needed to halve the response being measured – in assay [1] turned out to be 12 nM; in assay [2], 69 nM; in assay [3] it was 527 nM.
Turning to `COC1CN(c2ccc(-c3ncnc(Nc4ccc(N5CCN(C6COC6)CC5)cc4)n3)cc2C#N)C1` [Example 269, 2-(3-methoxyazetidin-1-yl)-5-(4-((4-(4-(oxetan-3-yl)piperazin-1-yl)phenyl)amino)-1,3,5-triazin-2-yl)benzonitrile], the IC50 in assay [1] amounted to 13 nM; in assay [2] it was 25 nM; in assay [3], 219 nM.
On the same counts, the results for `N#Cc1cc(-c2ncnc(Nc3ccc(N4CCN(C5COC5)CC4)cc3)n2)cc(F)c1OC1CCS(=O)(=O)CC1` [Example 271, 2-((1,1-dioxidotetrahydro-2H-thiopyran-4-yl)oxy)-3-fluoro-5-(4-((4-(4-(oxetan-3-yl)piperazin-1-yl)phenyl)amino)-1,3,5-triazin-2-yl)benzonitrile] are 18 nM, 110 nM and no less than 1000 nM.
The matching figures for `CS(=O)(=O)C1CN(c2ccc(-c3ncnc(Nc4ccc(N5CCN(C6COC6)CC5)cc4)n3)cc2C#N)C1` [Example 272, 2-(3-(methylsulfonyl)azetidin-1-yl)-5-(4-((4-(4-(oxetan-3-yl)piperazin-1-yl)phenyl)amino)-1,3,5-triazin-2-yl)benzonitrile]: 28 nM, 53 nM and 68 nM.
As to `CS(=O)(=O)N1CC(Oc2ccc(-c3ncnc(Nc4ccc(N5CCN(C6COC6)CC5)cc4)n3)cc2C#N)C1` [Example 273, 2-((1-(methylsulfonyl)azetidin-3-yl)oxy)-5-(4-((4-(4-(oxetan-3-yl)piperazin-1-yl)phenyl)amino)-1,3,5-triazin-2-yl)benzonitrile], the IC50 is 139 nM in assay [1], 285 nM in assay [2] and 133 nM in assay [3].
Take `N#Cc1cc(-c2ncnc(Nc3ccc(N4CCN(C5COC5)CC4)cc3)n2)ccc1OC1CN(C(=O)CO)C1` [Example 274, 2-((1-(2-hydroxyacetyl)azetidin-3-yl)oxy)-5-(4-((4-(4-(oxetan-3-yl)piperazin-1-yl)phenyl)amino)-1,3,5-triazin-2-yl)benzonitrile]: the IC50 in assay [1] is 47 nM; in assay [2], no less than 1000 nM; in assay [3] it was no less than 1000 nM.
Consider `N#Cc1cc(-c2ncnc(Nc3ccc4oc(=O)[nH]c4c3)n2)ccc1OC1CCOCC1` [Example 277, 5-(4-((2-oxo-2,3-dihydrobenzo[d]oxazol-5-yl)amino)-1,3,5-triazin-2-yl)-2-((tetrahydro-2H-pyran-4-yl)oxy)benzonitrile], for which the figures for the IC50 in assay [1], in assay [2] and in assay [3] were 18 nM, 47 nM and no less than 1000 nM, respectively.
In the case of `CC1(C)C(=O)Nc2ccc(Nc3ncnc(-c4ccc(OC5CCOCC5)c(C#N)c4)n3)cc21` [Example 278, 5-(4-((3,3-dimethyl-2-oxoindolin-5-yl)amino)-1,3,5-triazin-2-yl)-2-((tetrahydro-2H-pyran-4-yl)oxy)benzonitrile], the IC50 was 4 nM in assay [1], 9 nM in assay [2] and 541 nM in assay [3].
Turning to `N#Cc1cc(-c2ncnc(Nc3ccc(N4CCN(C5COC5)CC4)cc3)n2)ccc1OC1CCC2(CC1)OCCO2` [Example 279, 2-(1,4-dioxaspiro[4.5]decan-8-yloxy)-5-(4-((4-(4-(oxetan-3-yl)piperazin-1-yl)phenyl)amino)-1,3,5-triazin-2-yl)benzonitrile], the IC50 in assay [1] is 27 nM; in assay [2] it was 75 nM; in assay [3] it was no less than 1000 nM.
Consider `N#Cc1cc(-c2ncnc(Nc3ccc(N4CCN(C5COC5)CC4)cc3)n2)ccc1OCC1(F)COC1` [Example 280, 2-((3-fluorooxetan-3-yl)methoxy)-5-(4-((4-(4-(oxetan-3-yl)piperazin-1-yl)phenyl)amino)-1,3,5-triazin-2-yl)benzonitrile], for which the values for the IC50 in assay [1], in assay [2] and in assay [3] were 4 nM, 10 nM and 110 nM, respectively.
Take `COc1cc(Nc2ncnc(-c3ccc(OC4CCN(C(=O)[C@H](C)O)CC4)c(C#N)c3)n2)ccc1N1CCN(C2COC2)CC1` [Example 281, (S)-2-((1-(2-hydroxypropanoyl)piperidin-4-yl)oxy)-5-(4-((3-methoxy-4-(4-(oxetan-3-yl)piperazin-1-yl)phenyl)amino)-1,3,5-triazin-2-yl)benzonitrile]: the IC50 in assay [1] stood at 2 nM; in assay [2], 8 nM; in assay [3], 185 nM.
On the same counts, the results for `C[C@H](Oc1ccc(-c2ncnc(Nc3ccc(N4CCN(C5COC5)CC4)cc3)n2)cc1C#N)C1CCOCC1` [Example 282, (S)-5-(4-((4-(4-(oxetan-3-yl)piperazin-1-yl)phenyl)amino)-1,3,5-triazin-2-yl)-2-(1-(tetrahydro-2H-pyran-4-yl)ethoxy)benzonitrile] are 14 nM, 16 nM and 219 nM.
Consider `C[C@@H](Oc1ccc(-c2ncnc(Nc3ccc(N4CCN(C5COC5)CC4)cc3)n2)cc1C#N)C1CCOCC1` [Example 283, (R)-5-(4-((4-(4-(oxetan-3-yl)piperazin-1-yl)phenyl)amino)-1,3,5-triazin-2-yl)-2-(1-(tetrahydro-2H-pyran-4-yl)ethoxy)benzonitrile], for which the IC50 in assay [1] was 22 nM; in assay [2], 115 nM; in assay [3], 450 nM.
The matching figures for `N#Cc1cc(-c2ncnc(Nc3ccc(N4CCN(C5COC5)CC4)cc3)n2)ccc1OCC1CCOCC1` [Example 285, 5-(4-((4-(4-(oxetan-3-yl)piperazin-1-yl)phenyl)amino)-1,3,5-triazin-2-yl)-2-((tetrahydro-2H-pyran-4-yl)methoxy)benzonitrile]: 4 nM, 8 nM and 313 nM.
Take `CC(C)[C@H](Oc1ccc(-c2ncnc(Nc3ccc(N4CCN(C5COC5)CC4)cc3)n2)cc1C#N)C(N)=O` [Example 286, (S)-2-(2-cyano-4-(4-((4-(4-(oxetan-3-yl)piperazin-1-yl)phenyl)amino)-1,3,5-triazin-2-yl)phenoxy)-3-methylbutanamide]: the 50% inhibitory concentration (IC50) is 94 nM in assay [1], 237 nM in assay [2] and no less than 1000 nM in assay [3].
Take `N#Cc1cc(-c2ncnc(Nc3ccc(N4CC(O)C4)nc3)n2)ccc1OC1CCOCC1` [Example 287, 5-(4-((6-(3-hydroxyazetidin-1-yl)pyridin-3-yl)amino)-1,3,5-triazin-2-yl)-2-((tetrahydro-2H-pyran-4-yl)oxy)benzonitrile]: the IC50 is 15 nM in assay [1], 20 nM in assay [2] and no less than 1000 nM in assay [3].
For `N#Cc1cc(-c2ncnc(Nc3ccc(N4CCN(C5COC5)CC4)cc3)n2)ccc1O[C@H]1CCN(C(=O)C(F)F)C[C@H]1F` [Example 288, 2-(((3R,4S)-1-(2,2-difluoroacetyl)-3-fluoropiperidin-4-yl)oxy)-5-(4-((4-(4-(oxetan-3-yl)piperazin-1-yl)phenyl)amino)-1,3,5-triazin-2-yl)benzonitrile], the IC50 in assay [1] worked out at 3 nM; in assay [2], 2 nM; in assay [3] it was 316 nM.
On the same counts, the results for `CC(=O)N1CC[C@H](Oc2ccc(-c3ncnc(Nc4ccc(N5CCN(C6COC6)CC5)cc4)n3)cc2C#N)[C@H](F)C1` [Example 289, 2-(((3R,4S)-1-acetyl-3-fluoropiperidin-4-yl)oxy)-5-(4-((4-(4-(oxetan-3-yl)piperazin-1-yl)phenyl)amino)-1,3,5-triazin-2-yl)benzonitrile] are 4 nM, 5 nM and 444 nM.
Take `N#Cc1cc(-c2ncnc(Nc3ccc(N4CCN(C5COC5)CC4)cc3)n2)ccc1O[C@H]1CCCC[C@H]1N` [Example 291, 2-(((1S,2R)-2-aminocyclohexyl)oxy)-5-(4-((4-(4-(oxetan-3-yl)piperazin-1-yl)phenyl)amino)-1,3,5-triazin-2-yl)benzonitrile]: the figures for the IC50 in assay [1], in assay [2] and in assay [3] were 266 nM, 603 nM and 474 nM, respectively.
The matching figures for `C[C@H](O)C(=O)N1CC[C@H](Oc2ccc(-c3ncnc(Nc4ccc(C5CCOCC5)cc4)n3)cc2C#N)[C@H](F)C1` [Example 293, 2-(((3R,4S)-3-fluoro-1-((S)-2-hydroxypropanoyl)piperidin-4-yl)oxy)-5-(4-((4-(tetrahydro-2H-pyran-4-yl)phenyl)amino)-1,3,5-triazin-2-yl)benzonitrile]: 3 nM, 2 nM and no less than 1000 nM.
Take `C[C@H](O)C(=O)N1CC[C@H](Oc2ccc(-c3ncnc(Nc4cnn(C(C)(C)C)c4)n3)cc2C#N)[C@H](F)C1` [Example 294, 5-(4-((1-(tert-butyl)-1H-pyrazol-4-yl)amino)-1,3,5-triazin-2-yl)-2-(((3R,4S)-3-fluoro-1-((S)-2-hydroxypropanoyl)piperidin-4-yl)oxy)benzonitrile]: the half-inhibitory concentration (IC50) in assay [1] came out at 4 nM; in assay [2] it was 5 nM; in assay [3], 228 nM.
The matching figures for `N#Cc1cc(-c2ncnc(Nc3ccc(N4CCNCC4)c(F)c3)n2)ccc1O[C@H]1CCN(C=O)C[C@H]1F` [Example 296, 2-(((3R,4S)-3-fluoro-1-formylpiperidin-4-yl)oxy)-5-(4-((3-fluoro-4-(piperazin-1-yl)phenyl)amino)-1,3,5-triazin-2-yl)benzonitrile]: 3 nM, 1 nM and 274 nM.
